Laboratory results reported in paper PMC11033320, “Activation of p53 signaling and regression of breast and prostate carcinoma cells by spirooxindole-benzimidazole small molecules” (Frontiers in Pharmacology, 2024).

Assays:
[1] = tested on: OVCAR-3; assay: NCI anticancer screening, Ovarian Cancer OVCAR-3; format: cell-based; details: Homo sapiens; OVCAR-3, 10 μM; read-out: % Growth Inhibition (GI %)
Source text: (§1) The compound has been processed according to standard method NCI-60 Human Tumor Cell Lines Screen for organic compound at development therapeutic program (DTP). Requests for access to this national resource can be submitted online at: […]

[2] = tested on: UO-31; assay: NCI anticancer screening, Renal Cancer UO-31; format: cell-based; details: Homo sapiens; UO-31, 10 μM; read-out: % Growth Inhibition (GI %)
Source text: as §1

[3] = tested on: HL-60(TB); assay: NCI anticancer screening, Leukemia HL-60(TB); format: cell-based; details: Homo sapiens, read-out: % Growth Inhibition (GI %)
Source text: as §1

[4] = tested on: HCC-2998; assay: NCI anticancer screening, Colon Cancer HCC-2998; format: cell-based; details: Homo sapiens; HCC-2998, 10 μM; read-out: % Growth Inhibition (GI %)
Source text: as §1

[5] = tested on: U251; assay: NCI anticancer screening, CNS Cancer U251; format: cell-based; details: Homo sapiens, U-251; U251, 10 μM; read-out: % Growth Inhibition (GI %)
Source text: as §1

[6] = tested on: CCRF-CEM; assay: NCI anticancer screening, Leukemia CCRF-CEM; format: cell-based; details: Homo sapiens, read-out: % Growth Inhibition (GI %)
Source text: as §1

[7] = tested on: MDA-MB-435; assay: NCI anticancer screening, Melanoma MDA-MB-435; format: cell-based; details: Homo sapiens; MDA-MB-435, 10 μM; read-out: % Growth Inhibition (GI %)
Source text: as §1

[8] = tested on: HT29; assay: NCI anticancer screening, Colon Cancer HT29; format: cell-based; details: Homo sapiens, HT-29; HT29, 10 μM; read-out: % Growth Inhibition (GI %)
Source text: as §1

[9] = tested on: OVCAR-5; assay: NCI anticancer screening, Ovarian Cancer OVCAR-5; format: cell-based; details: Homo sapiens; OVCAR-5, 10 μM; read-out: % Growth Inhibition (GI %)
Source text: as §1

[10] = tested on: SNB-75; assay: NCI anticancer screening, CNS Cancer SNB-75; format: cell-based; details: Homo sapiens; SNB-75, 10 μM; read-out: % Growth Inhibition (GI %)
Source text: as §1

[11] = tested on: NCI/ADR-RES; assay: NCI anticancer screening, Ovarian Cancer NCI/ADR-RES; format: cell-based; details: Homo sapiens, read-out: % Growth Inhibition (GI %)
Source text: as §1

[12] = tested on: A549/ATCC; assay: NCI anticancer screening, Non-Small Cell Lung Cancer A549/ATCC; format: cell-based; details: Homo sapiens, read-out: % Growth Inhibition (GI %)
Source text: as §1

[13] = tested on: SF-268; assay: NCI anticancer screening, CNS Cancer SF-268; format: cell-based; details: Homo sapiens; SF-268, 10 μM; read-out: % Growth Inhibition (GI %)
Source text: as §1

[14] = tested on: CAKI-1; assay: NCI anticancer screening, Renal Cancer CAKI-1; format: cell-based; details: Homo sapiens; CAKI-1, 10 μM; read-out: % Growth Inhibition (GI %)
Source text: as §1

[15] = tested on: MALME-3M; assay: NCI anticancer screening, Melanoma MALME-3M; format: cell-based; details: Homo sapiens, read-out: % Growth Inhibition (GI %)
Source text: as §1

[16] = tested on: ACHN; assay: NCI anticancer screening, Renal Cancer ACHN; format: cell-based; details: Homo sapiens, read-out: % Growth Inhibition (GI %)
Source text: as §1

[17] = tested on: MOLT-4; assay: NCI anticancer screening, Leukemia MOLT-4; format: cell-based; details: Homo sapiens; MOLT-4, 10 μM; read-out: % Growth Inhibition (GI %)
Source text: as §1

[18] = tested on: MCF7; assay: NCI anticancer screening, Breast Cancer MCF7; format: cell-based; details: Homo sapiens; MCF7, 10 μM; read-out: % Growth Inhibition (GI %)
Source text: as §1

[19] = tested on: TK-10; assay: NCI anticancer screening, Renal Cancer TK-10; format: cell-based; details: Homo sapiens; TK-10, 10 μM; read-out: % Growth Inhibition (GI %)
Source text: as §1

[20] = tested on: SN12C; assay: NCI anticancer screening, Renal Cancer SN12C; format: cell-based; details: Homo sapiens, read-out: % Growth Inhibition (GI %)
Source text: as §1

[21] = MTT cytotoxicity to normal human lung fibroblast Wi-38 cell line; format: cell-based; details: Wi-38 normal lung fibroblast cells, mean ± SEM, read-out: percentage of Wi-38 viability
Method: Normal human lung fibroblast Wi-38 cell line was used to detect cytotoxicity of the studied compounds (Table S8). Wi-38 cell line was cultured in DMEM medium-contained 10% fetal bovine serum (FBS), seeded as 5x10^3 cells per well in 96-well cell culture plate and incubated at 37 °C in 5% CO2 incubator. After 24 h for cell attachment, serial concentrations of the synthetic compounds were incubated with Wi-38 cells for 72 h. Cell viability was assayed by MTT method (Mosmann, 1983). Twenty microliters of 5 mg/ml MTT (Sigma, USA) was added to each well and the plate was incubated at 37 °C for 3 h. Then MTT solution was removed, 100 µl DMSO was added and the absorbance of each well was measured with a microplate reader (BMG LabTech, Germany) at 570 nm.

[22] = tested on: NCI-H522; assay: NCI anticancer screening, Non-Small Cell Lung Cancer NCI-H522; format: cell-based; details: Homo sapiens; NCI-H522, 10 μM; read-out: % Growth Inhibition (GI %)
Source text: as §1

[23] = tested on: UACC-257; assay: NCI anticancer screening, Melanoma UACC-257; format: cell-based; details: Homo sapiens; UACC-257, 10 μM; read-out: % Growth Inhibition (GI %)
Source text: as §1

[24] = tested on: SK-MEL-5; assay: NCI anticancer screening, Melanoma SK-MEL-5; format: cell-based; details: Homo sapiens; SK-MEL-5, 10 μM; read-out: % Growth Inhibition (GI %)
Source text: as §1

[25] = tested on: HCT-116; assay: NCI anticancer screening, Colon Cancer HCT-116; format: cell-based; details: Homo sapiens; HCT-116, 10 μM; read-out: % Growth Inhibition (GI %)
Source text: as §1

[26] = tested on: SK-MEL-2; assay: NCI anticancer screening, Melanoma SK-MEL-2; format: cell-based; details: Homo sapiens; SK-MEL-2, 10 μM; read-out: % Growth Inhibition (GI %)
Source text: as §1

[27] = tested on: HCT-15; assay: NCI anticancer screening, Colon Cancer HCT-15; format: cell-based; details: Homo sapiens; HCT-15, 10 μM; read-out: % Growth Inhibition (GI %)
Source text: as §1

[28] = tested on: HS 578T; assay: NCI anticancer screening, Breast Cancer HS 578T; format: cell-based; details: Homo sapiens, read-out: % Growth Inhibition (GI %)
Source text: as §1

[29] = tested on: SW-620; assay: NCI anticancer screening, Colon Cancer SW-620; format: cell-based; details: Homo sapiens; SW-620, 10 μM; read-out: % Growth Inhibition (GI %)
Source text: as §1

[30] = tested on: MDA-MB-468; assay: NCI anticancer screening, Breast Cancer MDA-MB-468; format: cell-based; details: Homo sapiens, read-out: % Growth Inhibition (GI %)
Source text: as §1

[31] = tested on: HOP-92; assay: NCI anticancer screening, Non-Small Cell Lung Cancer HOP-92; format: cell-based; details: Homo sapiens; HOP-92, 10 μM; read-out: % Growth Inhibition (GI %)
Source text: as §1

[32] = tested on: HOP-62; assay: NCI anticancer screening, Non-Small Cell Lung Cancer HOP-62; format: cell-based; details: Homo sapiens; HOP-62, 10 μM; read-out: % Growth Inhibition (GI %)
Source text: as §1

[33] = tested on: 786-0; assay: NCI anticancer screening, Renal Cancer 786-0; format: cell-based; details: Homo sapiens; 786-0, 10 μM; read-out: % Growth Inhibition (GI %)
Source text: as §1

Compound	inhibition at 10 µM [1]	inhibition at 10 µM [2]	inhibition at 10 µM [3]	inhibition at 10 µM [4]	inhibition at 10 µM [5]	inhibition at 10 µM [6]	inhibition at 10 µM [7]	inhibition at 10 µM [8]	inhibition at 10 µM [9]	inhibition at 10 µM [10]	inhibition at 10 µM [11]	inhibition at 10 µM [12]	inhibition at 10 µM [13]	inhibition at 10 µM [14]	inhibition at 10 µM [15]	inhibition at 10 µM [16]	inhibition at 10 µM [17]	inhibition at 10 µM [18]	inhibition at 10 µM [19]	inhibition at 10 µM [20]	other results
O=C(c1nc2ccccc2[nH]1)[C@H]1[C@H](c2cccs2)C2CSCN2[C@]12C(=O)Nc1ccccc12 (stereo partly drawn) [Compound 6e, (3S,6′R)-6'-(1H-Benzo [d]imidazole-2-carbonyl)-7'-(thiophen-2-yl)-3′,6′,7′,7a′-tetrahydro-1′H-spiro [indoline-3.5′-pyrrolo [1,2-c]thiazol]-2-one]	105%	76%	94.1%	108%	100%	104%	100%	101%	96.2%	85.9%	102%	87.1%	92.4%	89.6%	101%	103%	96.1%	94.5%	106%	97.5%	viability at 72 h, 5 µM [21]: 51.7 ± 1.28%; inhibition at 10 µM [22]: 91.5%; inhibition at 10 µM [23]: 93.4%; inhibition at 10 µM [24]: 99%; inhibition at 10 µM [25]: 96.3%; inhibition at 10 µM [26]: 111%; inhibition at 10 µM [27]: 100%; inhibition at 10 µM [28]: 101%; inhibition at 10 µM [29]: 96.7%; inhibition at 10 µM [30]: 100%; inhibition at 10 µM [31]: 105%; inhibition at 10 µM [32]: 99.5%; melting point: 240 to 242 °C; inhibition at 10 µM [33]: 100%
Cc1ccc([C@@H]2C3CSCN3[C@]3(C(=O)Nc4ccccc43)[C@H]2C(=O)c2nc3ccccc3[nH]2)cc1 (mixture of isomers) [Compound 6d, (3S,6′R)-6'-(1H-Benzo [d]imidazole-2-carbonyl)-7'-(p-tolyl)-3′,6′,7′,7a′-tetrahydro-1′H-spiro [indoline-3.5′-pyrrolo [1,2-c]thiazol]-2-one]	89%	54.3%	96.2%	94.9%	73.3%	89.5%	70.6%	69.2%	95.2%	61.4%	86.2%	75.4%	64%	54.5%	85.3%	88.9%	78.5%	70.4%	94.5%	85.2%	viability at 72 h, 5 µM [21]: > 81%; inhibition at 10 µM [22]: 84.3%; inhibition at 10 µM [23]: 80.6%; inhibition at 10 µM [24]: 83.3%; inhibition at 10 µM [25]: 74.5%; inhibition at 10 µM [26]: 93.6%; inhibition at 10 µM [27]: 83.6%; inhibition at 10 µM [28]: 78.6%; inhibition at 10 µM [29]: 92%; inhibition at 10 µM [30]: 63.5%; inhibition at 10 µM [31]: 87%; inhibition at 10 µM [32]: 105%; inhibition at 10 µM [33]: 86.1%
O=C(c1nc2ccccc2[nH]1)[C@H]1[C@H](c2ccccc2)C2CSCN2[C@]12C(=O)Nc1ccccc12 (mixture of isomers) [Compound 6a, (3S,6′R)-6'-(1H-benzo [d]imidazole-2-carbonyl)-7′-phenyl-3′,6′,7′,7a′-tetrahydro-1′H-spiro [indoline-3.5′-pyrrolo [1,2-c]thiazol]-2-one]	110%	77.2%	101%	109%	93.9%	111%	103%	98.8%	104%	79.8%	105%	98.7%	98.1%	86%	101%	99.5%	100%	98.1%	110%	106%	viability at 72 h, 5 µM [21]: > 81%; inhibition at 10 µM [22]: 93.7%; inhibition at 10 µM [23]: 97.3%; inhibition at 10 µM [24]: 92.7%; inhibition at 10 µM [25]: 106%; inhibition at 10 µM [26]: 101%; inhibition at 10 µM [27]: 109%; inhibition at 10 µM [28]: 103%; inhibition at 10 µM [29]: 97.8%; inhibition at 10 µM [30]: 100%; inhibition at 10 µM [31]: 95.5%; inhibition at 10 µM [32]: 99.3%; inhibition at 10 µM [33]: 102%
